Test results taken from ChEMBL document CHEMBL1909294, “Translating clinical findings into knowledge in drug safety evaluation--drug induced liver injury prediction system (DILIps)” (PLoS Comput Biol, 2011).

Key:
Hepatotoxicity [1] = system: Hepatotoxicity;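 as to HepSE cholecystitis: Cholecystitis-related hepatic side effect score drawn from the DILIps (drug-induced liver injury prediction) training data set; call rule not given here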;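 as to HepSE cholelithiasis: hepatic side effect score for cholelithiasis, drawn from the DILIps training data for predicting drug-induced liver injury; call rule not given here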;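 as to HepSE cirrhosis: cirrhosis hepatic side effect score taken from the DILIps (drug-induced liver injury prediction) training set; call rule not given here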;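 as to HepSE hepatic necrosis: score of hepatic side effects for hepatic necrosis, drawn from the training data of DILIps, a prediction system for drug-induced liver injury; call rule not given here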;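 as to HepSE hepatomegaly: hepatic side effect score for hepatomegaly, taken from the training set of the DILIps drug-induced liver injury prediction system; call rule not given here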; as to HepSE liver disease: call rule not given here;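 as to HepSE liver function tests abnormal: hepatic side effect score taken from the DILIps (drug-induced liver injury prediction system) training data, here covering abnormal liver function test findings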
Hepatotoxicity [2] = system: Hepatotoxicity; remark: listed apart in the source;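 as to HepSE cholecystitis: Cholecystitis-related hepatic side effect score drawn from the DILIps (drug-induced liver injury prediction) training data set; call rule not given here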;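 as to HepSE cholelithiasis: hepatic side effect score for cholelithiasis, drawn from the DILIps training data for predicting drug-induced liver injury; call rule not given here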;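 as to HepSE cirrhosis: cirrhosis hepatic side effect score taken from the DILIps (drug-induced liver injury prediction) training set; call rule not given here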;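 as to HepSE hepatic necrosis: score of hepatic side effects for hepatic necrosis, drawn from the training data of DILIps, a prediction system for drug-induced liver injury; call rule not given here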;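 as to HepSE hepatomegaly: hepatic side effect score for hepatomegaly, taken from the training set of the DILIps drug-induced liver injury prediction system; call rule not given here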; as to HepSE liver disease: call rule not given here
Hepatotoxicity [3] = system: Hepatotoxicity; remark: listed apart in the source;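 as to HepSE cholecystitis: Cholecystitis-related hepatic side effect score drawn from the DILIps (drug-induced liver injury prediction) training data set; call rule not given here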;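 as to HepSE cholelithiasis: hepatic side effect score for cholelithiasis, drawn from the DILIps training data for predicting drug-induced liver injury; call rule not given here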;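 as to HepSE cirrhosis: cirrhosis hepatic side effect score taken from the DILIps (drug-induced liver injury prediction) training set; call rule not given here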;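 as to HepSE hepatic necrosis: score of hepatic side effects for hepatic necrosis, drawn from the training data of DILIps, a prediction system for drug-induced liver injury; call rule not given here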;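 as to HepSE hepatomegaly: hepatic side effect score for hepatomegaly, taken from the training set of the DILIps drug-induced liver injury prediction system; call rule not given here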; as to HepSE liver disease: call rule not given here
Hepatotoxicity [4] = system: Hepatotoxicity; remark: listed apart in the source;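 as to HepSE cholecystitis: Cholecystitis-related hepatic side effect score drawn from the DILIps (drug-induced liver injury prediction) training data set; call rule not given here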;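 as to HepSE cholelithiasis: hepatic side effect score for cholelithiasis, drawn from the DILIps training data for predicting drug-induced liver injury; call rule not given here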;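 as to HepSE cirrhosis: cirrhosis hepatic side effect score taken from the DILIps (drug-induced liver injury prediction) training set; call rule not given here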;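 as to HepSE hepatic necrosis: score of hepatic side effects for hepatic necrosis, drawn from the training data of DILIps, a prediction system for drug-induced liver injury; call rule not given here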;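 as to HepSE hepatomegaly: hepatic side effect score for hepatomegaly, taken from the training set of the DILIps drug-induced liver injury prediction system; call rule not given here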; as to HepSE liver disease: call rule not given here
Hepatotoxicity [5] = system: Hepatotoxicity; remark: listed apart in the source; as to HepSE liver disease: call rule not given here
Hepatotoxicity [6] = system: Hepatotoxicity; remark: listed apart in the source; as to HepSE liver disease: call rule not given here
Hepatotoxicity [7] = system: Hepatotoxicity; remark: listed apart in the source
Hepatotoxicity [8] = system: Hepatotoxicity; remark: listed apart in the source
Hepatotoxicity [9] = system: Hepatotoxicity; remark: listed apart in the source
Hepatotoxicity [10] = system: Hepatotoxicity; remark: listed apart in the source
Hepatotoxicity [11] = system: Hepatotoxicity; remark: listed apart in the source
Hepatotoxicity [12] = system: Hepatotoxicity; remark: listed apart in the source
Hepatotoxicity [13] = system: Hepatotoxicity; remark: listed apart in the source
Hepatotoxicity [14] = system: Hepatotoxicity; remark: listed apart in the source

Row | Compound | HepSE_cirrhosis (Hepatotoxicity [1]) | HepSE_hepatomegaly (Hepatotoxicity [2]) | HepSE_cholecystitis (Hepatotoxicity [3]) | HepSE_cholelithiasis (Hepatotoxicity [4]) | HepSE_hepatic necrosis (Hepatotoxicity [5]) | HepSE_liver disease (Hepatotoxicity [6]) | HepSE_bilirubinemia (Hepatotoxicity [7]) | HepSE_liver function tests abnormal (Hepatotoxicity [8]) | HepSE_jaundice (Hepatotoxicity [9]) | HepSE_elevated liver function tests (Hepatotoxicity [10]) | HepSE_hepatitis (Hepatotoxicity [11]) | HepSE_Combined Scores (Hepatotoxicity [12]) | HepSE_liver fatty (Hepatotoxicity [13]) | HepSE_hepatic failure (Hepatotoxicity [14])
1 | NCCCC(N)(C(=O)O)C(F)F (configuration not stated) [EFLORNITHINE] | 0 | 0 | 0 | 0 | 0 | 0 | 0 | 0 | 0 | 0 | 0 | 0 | 0 | 0
2 | CN1CC(=O)N2[C@H](c3ccc4c(c3)OCO4)c3[nH]c4ccccc4c3C[C@@H]2C1=O | 0 | 0 | 0 | 0 | 0 | 0 | 0 | 1 | 0 | 0 | 0 | 1 | 0 | 0
3 | NNC(=O)c1ccncc1 [ISONIAZID] | 0 | 0 | 0 | 0 | 0 | 0 | 1 | 0 | 1 | 0 | 0 | 2 | 0 | 0
4 | COLESTIPOL | 0 | 0 | 1 | 1 | 0 | 0 | 0 | 0 | 0 | 0 | 0 | 2 | 0 | 0
5 | C=C1/C(=C\C=C2/CCC[C@]3(C)[C@@H]([C@H](C)CCCC(C)(C)O)CC[C@@H]23)C[C@@H](O)C[C@@H]1O [CALCITRIOL] | 0 | 0 | 0 | 0 | 0 | 0 | 0 | 0 | 0 | 0 | 0 | 0 | 0 | 0
6 | CN1C(CSCC(F)(F)F)Nc2cc(Cl)c(S(N)(=O)=O)cc2S1(=O)=O (configuration not stated) [POLYTHIAZIDE] | 0 | 0 | 0 | 0 | 0 | 0 | 0 | 0 | 1 | 0 | 0 | 1 | 0 | 0
7 | CCOC(=O)[C@H](CCc1ccccc1)N[C@H]1CCCN2CCC[C@@H](C(=O)O)N2C1=O [CILAZAPRIL] | 0 | 0 | 0 | 0 | 0 | 0 | 0 | 0 | 0 | 0 | 1 | 1 | 0 | 0
8 | Cc1cn[nH]c1 [FOMEPIZOLE] | 0 | 0 | 0 | 0 | 0 | 0 | 0 | 0 | 0 | 0 | 0 | 0 | 0 | 0
9 | CN1CCN(C(=O)OC2c3nccnc3C(=O)N2c2ccc(Cl)cn2)CC1 (configuration not stated) [ZOPICLONE] | 0 | 1 | 0 | 1 | 0 | 0 | 0 | 0 | 0 | 0 | 1 | 3 | 0 | 0
10 | CCN1CC(CCN2CCOCC2)C(c2ccccc2)(c2ccccc2)C1=O (configuration not stated) [DOXAPRAM] | 0 | 0 | 0 | 0 | 0 | 0 | 0 | 0 | 0 | 0 | 0 | 0 | 0 | 0
11 | GADODIAMIDE | 0 | 0 | 0 | 0 | 0 | 0 | 0 | 0 | 0 | 0 | 0 | 0 | 0 | 0
12 | CCCCNc1cc(C(=O)O)cc(S(N)(=O)=O)c1Oc1ccccc1 [BUMETANIDE] | 0 | 0 | 0 | 0 | 0 | 1 | 0 | 0 | 0 | 0 | 0 | 1 | 0 | 0
13 | COCCCOc1ccnc(C[S+]([O-])c2nc3ccccc3[nH]2)c1C (configuration not stated) [RABEPRAZOLE] | 1 | 0 | 1 | 1 | 0 | 0 | 0 | 1 | 1 | 0 | 1 | 7 | 1 | 0
